Laboratory results: US20240208998A1, “COMPOUNDS FOR USE IN THE TREATMENT OF HYPERPROLIFERATIVE DISORDERS” (FUNDACIÓ PRIVADA INSTITUT D'INVESTIGACIÓ ONCOLÓGICA DE VALL …, priority 2021, published 2024)
pEC50, pKd: −log10 of the molar value.

Tests used:
[1] = system: MCF7 (breast); assay: Antiproliferative activity on other tumour cell lines (CellTiter-Glo): MCF7; format: cell-based; conditions: Homo sapiens; MCF7, 72 h of treatment
Procedure: (§1) Other human adherent cancer cell lines were cultured in their corresponding cell medium (as specified in Table 4) supplemented with 10% FBS (v/v) and 1% P/S (v/v). Twenty-four hours prior to treatment with the compounds to be tested (Examples 1, 12 and 21), the cells were seeded in 96-well plates at different densities depending of the cell line (as specified in Table 4).
(§2) Depending on the cell line, a 50, 125 or 250 μM solution of the compounds of examples 1, 12 and 21 were prepared in complete medium, and then serially diluted (1:2) (Table 5). A solution of complete medium with DMSO was used as a vehicle control.
(§3) Fifty microliters of each serially diluted compound solution was added by medium replacement in two wells (by duplicate). After 48 h of treatment, 50 μL of fresh 2X serially diluted compound solution was added to the corresponding wells of the plate (100 μL of final volume/well). After twenty-four additional hours (a total of 72 h of treatment), an equal volume (100 μL) of CellTiter-Glo Reagent (Promega) was added to each well, plates were shaken during 2 min and incubated at rt for 10 min. Luminescence was recorded using a Spark multimode microplate reader and an integration time of 1 s per well.

[2] = system: T98G (glioblastoma); assay: Antiproliferative activity on other tumour cell lines (CellTiter-Glo): T98G; format: cell-based; conditions: Homo sapiens, 72 h of treatment
Procedure: as §1, §2, §3

[3] = system: HCT116 (colon); assay: Antiproliferative activity on other tumour cell lines (CellTiter-Glo): HCT116; format: cell-based; conditions: Homo sapiens; HCT 116, 72 h of treatment
Procedure: as §1, §2, §3

[4] = target: human TET2 construct (Homo sapiens, UniProt Q6N021, A1837G/A1840G/D1704G/D1842G/DEL1471-1702/DEL1708-1833/E1841G/F1706G/N1843S/Q1834G/V1836G); assay: Determination of TET2 binding by Surface Plasmon Resonance; conditions: SPR, Biacore T200, 25° C., steady state fit to single site interaction model
Procedure: The human methylcytosine dioxygenase TET2 construct used (1129-2002 with residues 1471-1843 replaced by a 15-residue GS-linker) was expressed in a pET-28a(+)psumo vector with kanamycin resistance and an N-terminal His6 tag, and cloned in Rosetta D3 Escherichia coli competent cells. Transformed cells were cultured overnight in 10 mL of LB media supplied with kanamycin (50 μg/mL), then scaled to 1 L LB medium supplied with kanamycin (50 μg/mL) and grown at 37° C. Once the optical density (OD600) achieved 0.8, protein expression was induced with 0.4 mM isopropyl-β-thiogalactopyranoside (IPTG) overnight at 18° C. Cells were harvested by centrifugation (8,000 rpm, 4° C., 30 min) and the pellet obtained was resuspended in 15 mL of buffer A (50 mM Hepes, 150 mM NaCl, 30 mM imidazole, 2 mM β-mercaptoethanol (pH 8.0) supplemented with Pierce protease inhibitor cocktail (ThermoFisher Scientific)) and lysed by sonication (1 min 40 s: 10 cycles×10 s ON, 30 s OFF, A=35%, T=19° C.) followed by two consecutive centrifugations (8,000 rpm, 4° C., 30 min) to clarify the lysate.
The TET2 protein was purified using an AKTA Start system (GE Healthcare, Uppsala, Sweden) by two-step purification procedure: one His-affinity chromatography followed by a size exclusion chromatography. First, the protein fraction obtained during the lysis (supernatant) was applied to a 5 mL HisTrap HP column (GE Healthcare), washed with buffer A (50 mM Hepes, 150 mM NaCl, 30 mM imidazole, 2 mM […] (pH 8.0)) and the bound protein was eluted with buffer B (50 mM Hepes, 150 mM NaCl, 250 mM imidazole, 2 mM β-mercaptoethanol (pH 8.0)). The eluted protein-containing fractions were pooled and concentrated up to 4 mL for the last purification step: a size exclusion chromatography (HiPrep 16/60 Sephacryl S-100 HR) in 50 mM Hepes, 150 mM NaCl, 2 mM β-mercaptoethanol (pH 8.0). Finally, the mass and purity of the protein were verified by SDS-electrophoresis and mass spectrometry.
The binding of compounds of the examples was determined by Surface Plasmon Resonance (SPR) using a Biacore T200 SPR biosensor instrument (GE Healthcare, Uppsala, Sweden) at 25° C. The human TET2 construct was immobilized on a CM5 sensor chip using a standard covalent immobilization via amine coupling following the activation of the carboxymethyl dextran matrix of the sensor chip (injection of a solution containing 0.1 M N-hydroxysuccinimide and 0.4 M 1-ethyl-3-[3-(dimethylamino)propyl]carbodiimide hydrochloride at a flow rate of 15 μL/min for 7 min). The protein immobilization was achieved after the injection of 5 μg/mL TET2 in 10 mM sodium acetate (pH 4.0) at a flow rate of 5 μL/min. Unreacted activated groups of the dextran matrix were deactivated by injection of 1 M ethanolamine hydrochloride for 7 min at a flow rate of 15 μL/min. The corresponding matrix activation and protein immobilization were performed using as a running buffer a phosphate buffered saline solution (1.05× PBS: 10 mM phosphate, pH 7.4, 150 mM NaCl). The screened compounds were prepared in a 20 mM stock solution in DMSO and diluted with 1.05× PBS to achieve a final 5% (v/v) DMSO concentration. The running buffer of the interaction assays consisted of 1×PBS, 5% (v/v) DMSO. The flow rate used for the screening was 60 μL/min and the ligand association and dissociation times set were 60 s and 120 s, respectively.
For data analysis the software used was the Biacore T200 Evaluation software. Different corrections were applied. First, the nonspecific binding to the chip surface and the baseline drift were corrected subtracting the signals of a reference surface (where the immobilization procedure was carried out without proteins) to the signals obtained on the TET2 surface. Second, a series of solvent standards (solvent correction) were introduced to remove the differences derived from the DMSO. Finally, the background was corrected subtracting blank injections (blank subtraction) to the injected compound signals.

[5] = system: A375 (melanoma); assay: Antiproliferative activity on other tumour cell lines (CellTiter-Glo): A375; format: cell-based; conditions: Homo sapiens, A-375; A375, 72 h of treatment
Procedure: as §1, §2, §3

[6] = system: Hop62 (lung); assay: Antiproliferative activity on other tumour cell lines (CellTiter-Glo): Hop62; format: cell-based; conditions: Homo sapiens, HOP-62; Hop62, 72 h of treatment
Procedure: as §1, §2, §3

[7] = system: MDA-MB-468 (breast); assay: Antiproliferative activity on other tumour cell lines (CellTiter-Glo): MDA-MB-468; format: cell-based; conditions: Homo sapiens, MD-MB-468, 72 h of treatment
Procedure: as §1, §2, §3

[8] = system: HL60 cell line; assay: Antiproliferative activity on HL60 cell line (CellTiter-Glo); format: cell-based; conditions: Homo sapiens, HL-60; HL60, 72 h of treatment
Procedure: The human leukaemic cell line HL60 was grown in suspension in RPMI 1640 medium containing 10% (v/v) FBS and 1% (v/v) P/S (Life Technologies). […] Leukaemia cells were suspended at a density of 2×10^5 cells/mL in complete RPMI 1640 medium and 25 μL were seeded in each well (5×10^3 final total cells/well). A 10 μM solution of the compounds of examples 1, 12 and 21, and a 25 μM solution of all other compounds were prepared in complete medium, and then serially diluted (1:2) (as specified in Table 3 below). A solution of complete medium with DMSO was used as a vehicle control.
Twenty-five microliters of each serially diluted compound solution were added to the corresponding wells of the plate (50 μL of final volume/well). After 48 h of treatment, 50 μL of fresh 2X serially diluted compound solution was added to their corresponding wells (100 μL of final volume/well). After twenty-four additional hours, an equal volume (100 μL) of CellTiter-Glo Reagent (Promega) was added to each well, plates were shaken during 2 min and incubated at rt for 10 min. Luminescence was recorded using a Spark multimode microplate reader and an integration time of 1 s per well.

[9] = system: LN229 (glioblastoma); assay: Antiproliferative activity on other tumour cell lines (CellTiter-Glo): LN229; format: cell-based; conditions: Homo sapiens, LN-229; LN229, 72 h of treatment
Procedure: as §1, §2, §3

pEC50 [1] | pEC50 [2] | melting point [°C] | pEC50 [3] | pKd [4] | pEC50 [5] | pEC50 [6] | pEC50 [7] | pEC50 [8] | pEC50 [9] | SMILES
4.84 | 4.13 | 210 to 212 | 4.92 | 4.80 | 5.85 | 4.40 | 4.80 | 6.95 | 5.48 | Cc1[nH]c2ccccc2c1-c1csc(NC(=O)Cc2cn3ccsc3n2)n1 [Example 1, 2-(imidazo[2,1-b]thiazol-6-yl)-N-[4-(2-methyl-1H-indol-3-yl)thiazol-2-yl]acetamide]
 |  | 166 to 168 |  | 5.30 |  |  |  | 5.03 |  | Cc1[nH]c2ccccc2c1-c1csc(NC(=O)Cc2cc3ccccc3[nH]2)n1 [Example 7, 2-(1H-indol-2-yl)-N-[4-(2-methyl-1H-indol-3-yl)thiazol-2-yl]acetamide]
